Data on two molecules can be found in patent US6686360B2, “N-benzylpiperazine compounds” (priority 2001, dated 2004).

The test system of assay [1] is mouse model of neurodegeneration affecting both the cortical neurones and the subjacent white matter. Put plainly: Neuroprotection in the cortex and white matter: excitotoxic lesions by intracerebral ibotenate or S-bromo-willardiine. It is filed as in vivo. The conditions noted are these: for Cortical lesions: lesion, μm / White matter lesions: lesion, μm: 10 mg/kg i.p. immediately after excitotoxic assault at P5, sacrifice at P10, averages; for size of the lesions in the white matter and in the cortex (neuroprotective effect): newborn Swiss mouse, test compound intraperitoneally after excitotoxic assault. Here is the method:
The model used is a mouse model of neurodegeneration affecting both the cortical neurones and the subjacent white matter (S. L. Tahraoui et al., Brain Pathol., 2001, 11, 56-71). This model is based on an intracerebral injection of S-bromo-willardiine, a glutamatergic agonist that acts on AMPA-kainate receptors, or of ibotenate, an agonist of NMDA-type receptors, in the newborn mouse.
All the injections are carried out in the morning between 10.00 and 13.00 hours. The animals are anaesthetised in advance and kept under a heating lamp during the handling period. Each experimental group comprises from 5 to 12 Swiss mice of both sexes, from at least 2 different litters. On the 5th day of life (P5), 10 μg of ibotenate or 15 μg of S-bromo-willardiine are injected intracerebrally using a 25G gauge needle mounted on a 50 μl syringe, fixed to a calibrated device that delivers a bolus of 1 μl at each depression. The needle is inserted 2 mm below the cutaneous level, in the fronto-parietal region of the right hemisphere (2 mm in front of the lambdoid suture and 2 mm outside the median line). Two boluses of 1 μl (1 μl into the periventricular white matter and 1 μl into the cortex) are administered. An interval of 30 seconds, during which the needle remains in position, separates each bolus in order to allow diffusion of the product. Immediately after this excitotoxic assault, the test compound (3, 10 or 30 mg/kg) or the carrier is administered intraperitoneally (injected volume=5 μl). The animals are sacrificed by decapitation 5 days later (P10) and their brains are immediately removed and fixed in formol before being enclosed in paraffin. Series of 15 μm coronal sections are prepared for all the brains and stained with cresyl violet, which makes it possible to determine in a precise and reproducible manner the anterio-posterior axis of the histological lesions in both the cortex and the white matter. The sizes of the histological lesions are determined by two independent observers having no knowledge of the experimental groups. The results are expressed in the form of averages.

The test system of assay [2] is lesions induced by kainic acid in the CA1 and CA3 regions of the hippocampus. Put plainly: Neuroprotection in the CA1 and CA3 regions of the hippocampus (kainic acid lesions). It is filed as in vivo, rat. Particulars: single injection 20 mg/kg intraperitoneal 3 minutes before kainic acid 12 mg/kg i.p.; sacrifice 7 days later. How it is done:
The histopathological changes observed which are associated with administration of kainic acid differ from cerebral ischaemia caused by lesions that develop first in the CA1 to CA3 regions of the hippocampus (C. Montecot et al., Neuroscience 84, 791-800). The aim is to study the protective effect against lesions induced essentially in the CA3 region of the hippocampus while there is no reduction in the circulation of blood.
Kainic acid is administered intraperitoneally to a conscious rat in a dose of 12 mg/kg. The animal is then observed for a period of about 2 hours during which, after a latent period, epileptiform convulsions occur. At the end of 2 hours, the convulsions are stopped by administration of 10 mg/kg of diazepam. The animals are sacrificed 7 days later, their brains are isolated and 8 transverse sections 15 μm thick, spaced 150 μm apart, are prepared. These are analysed by contrast microscopy by two independent observers having no knowledge of the experimental groups. A rating of 0 to 3 is given according to the severity of the neuronal lesions. The ratings for each hemisphere are added together to obtain a lesion rating.
The product is administered in a dose of 20 mg/kg by the intraperitoneal route 3 minutes before administration of the kainic acid.

Assay [3] deals with transitory focal cerebral ischaemia. Briefly: Anti-ischaemic activity: transitory focal cerebral ischaemia by intraluminal occlusion. Format: in vivo. Particulars: adult male Wistar rat; 1 mg/kg intravenously 3 minutes before occlusion; occlusion 1 hour, reperfusion 23 hours. How it is done:
The model used is a model of transitory focal cerebral ischaemia produced by intraluminal occlusion which mimics an embolic cerebral vascular accident in humans. The location of the infarction is cortical and subcortical (R. Bordet et al., J Cereb Blood Flow Metab. 20, 2000, 1190-1196 and 1999, 19, 1309-1345).
The model consists of a unilateral occlusion of the […] for 1 hour followed by reperfusion for 23 hours in an adult male Wistar rat. The aim of this experiment is to study the anti-ischaemic effect of the compounds of the invention.
The animals are anaesthetised for surgery with 300 mg/kg of chloral hydrate. For the duration of the surgery, their temperature is monitored and maintained at 37° C. using a temperature-controlled heating blanket.
The principal procedure is to stop the circulation of blood to the right middle cerebral artery (MCA) by intraluminal occlusion of the ostium. After 60 minutes, the occlusion is removed and the animals are replaced in their cage. After 24 hours the animals are sacrificed under anaesthetic. […]
The uncorrected infarcted zones and the total hemispheric zones are calculated separately for each section using an image analysis program. The corrected total volume of infarction is calculated in order to compensate for the effect of cerebral cedema. […]

In assay [4] the test system is primary cultures of cardiomyocytes. Briefly: Anti-apoptotic effect in primary cultures of cardiomyocytes (H2O2-induced apoptosis). It is filed as cell-based. The conditions noted are these: newborn rat cardiomyocytes; H2O2 0.075 mmol/liter for 30 minutes, then 24 hours culture. Here is the method: An in vitro study into an anti-apoptotic effect in primary cultures of cardiomyocytes was carried out by inducing apoptosis by adding hydrogen peroxide (H2O2). The free radicals produced induce apoptosis. This is similar to what is observed in ischaemia-reperfusion (R. Von Harsdorf, Circulation 99, 2934-2941). The cardiomyocytes are isolated from newborn rat hearts and are spread out at a density of 35 000 cells/cm^2. The process of apoptosis is induced by the addition of H2O2 (0.075 mmol/liter) for 30 minutes. The cardiomyocytes are then replaced in the culture medium for 24 hours. The apoptotic cells are visualised by various techniques, for example by the fragmentation of the genomic DNA that occurs in the process of apoptosis. […] The characteristic fragments of 180 bp of genomic DNA are detected by electrophoresis on agarose gel. The migration of phosphatidylserine (PS) from the inside of the membrane of the […] to the outside (externalisation) is an early indicator of apoptosis. This can be visualised by fluorescent labelling using annexin-V-FITC (fluorescein isothiocyanate) and quantified by comparison with the total number of cells.

In the case of `COc1ccc(CN2CCNCC2)c(OC)c1OC` [TMZ, Trimetazidine, reference compound], in assay [1], the “Cortical lesions: lesion, μm” value is 800 μm; the “White matter lesions: lesion, μm” value came out at 320 μm; the “size of the lesions in the white matter and in the cortex (neuroprotective effect)” value was “very low neuroprotective effect”.

As to `COc1ccc(CN2CCN(Cc3ccccc3)CC2)c(OCCCCCCC(=O)O)c1OC.Cl.Cl` [Example 2, 7-{6-[(4-Benzyl-1-piperazinyl)methyl]-2,3-dimethoxyphenoxy}-heptanoic acid dihydrochloride], in assay [1], the “Cortical lesions: lesion, μm” value amounted to 200 μm; the “White matter lesions: lesion, μm” value was 146.7 μm; the “size of the lesions in the white matter and in the cortex (neuroprotective effect)” value was “reduced the size of the lesions in the white matter and in the cortex”. Moreover, the “protection of neurones of the CA1 and CA3 regions of the hippocampus against kainic acid lesions” value in assay [2] was “protects the neurones of the CA1 and CA3 regions of the hippocampus against lesions induced by kainic acid”. Also, the “size of the infarction of the cortex and striatum” value in assay [3] was “reduced the size of the infarction of the cortex and striatum significantly”. In addition, in assay [4], the cell survival result is listed as “increase” and the “percentage of cells undergoing apoptosis” value was “decrease”.
